The experiment has as its system CEM cells HIV-1 protection, formazan growth assay. The experiment can be described thus: NCI AIDS Antiviral Assay. The settings on record: for pIC50: measured here: growth of uninfected CEM cells. Summed up: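 Human CEM cells, uninfected and HIV-1-infected, exposed to five drug concentrations; growth measured by soluble formazan assay and scored as percent protection from infection, with protecting compounds retested.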

In PubChem BioAssay AID179 (DTP/NCI, 2004) one finds EC50, IC50 and outcome data, which are given here for 53 compounds.

pEC50, pIC50: −log10 of the molar value. Activity calls are given as the source filed them.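 The calls were made as follows: active = compounds giving half or more protection of infected cells from virus-caused growth loss, again on retest; inactive = the rest.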

For `COc1ccc(C2c3c(-c4ccccc4)nn(-c4ccccc4)c3Oc3ncn(N)c(=N)c32)cc1OC` (stereo unspecified), the pEC50 was < 3.70 and the pIC50 was 4.52.

`O=C1/C(=C/c2ccc(Br)s2)NC(=S)N1CN1CCCCC1`: the pEC50 was < 3.70 and the pIC50 is 4.42.

For `CCOC(=O)c1sc(SC)nc1NC(=O)c1ccc(OC)cc1`, the pEC50 was < 3.70 and the pIC50 is < 3.70.

In the case of `COC1/C=C\OC2(C)Oc3c(C)c(O)c4c(O)c(c(/C=N\OCCCc5ccccc5)c(O)c4c3C2=O)NC(=O)/C(C)=C\C=C/C(C)C(O)C(C)C(O)C(C)C(OC(C)=O)C1C` (stereo unspecified), the pEC50 is < 3.70 and the pIC50 was 5.18.

On to `CNc1ncnc2c1ncn2C1OC(CO)C(O)C1O` (stereo unspecified), for which the outcome was inactive.

In the case of `Nc1cc2c3c(cccc3c1)C(=O)N(CCN1CCCC1)C2=O`, the pEC50 is < 3.70 and the pIC50 was 5.97.

In the case of `CS(=O)(=O)N1CC(CCl)c2ccc(O)cc21` (stereo unspecified), the pEC50 was < 3.70 and the negative-log IC50 (pIC50) is 5.73.

As to `CCN(CC)C1Oc2cc3c(cc2C(c2cccc(OC)c2OC)C1C)OCO3` (stereo unspecified), the pEC50 was < 3.70 and the negative logarithm of the IC50 (pIC50) is 5.80.

Consider `CN1CSCSC1`, for which the outcome was inactive.

For `CC1NC(/C(=C/c2ccccc2O)NC(=O)c2ccccc2)OC1=O` (stereo unspecified), the pEC50 was < 4.30 and the negative-log IC50 (pIC50) is < 4.30.

As to `CCCC(=O)Nc1ccc2c(ccn2COC)c1`, the pEC50 was < 3.70 and the pIC50 is < 3.70.

On to `COC(=O)C1=C(C(=O)OC)C23CC1C1C(C(=O)OC)=C(C(=O)OC)C12C1C=CC3C2C(=O)OC(=O)C21` (stereo unspecified), for which the pEC50 was < 4.84 and the pIC50 is < 4.84.

As to `CCCCCCCCCCCCCCCCOC1OC(CS(=O)(=O)O)C(O)C(O)C1O` (stereo unspecified), the pEC50 was < 3.86 and the negative-log IC50 (pIC50) was 4.39.

In the case of `Cc1ccc2c(c1-c1c(C)ccc3c1C(=O)c1ccccc1C3=O)C(=O)c1ccccc1C2=O`, the pEC50 was < 3.70 and the negative logarithm of the IC50 (pIC50) is 5.11.

As to `N#CC(c1ccc(Cl)cc1)c1cccc(Cl)n1` (stereo unspecified), the pEC50 is < 4.15 and the negative logarithm of the IC50 (pIC50) is < 4.15.

For `CC1=C(/C=C/C(C)=C/C=C(C(=O)O)\C(C)=C\C(=O)O)C(C)(C)CCC1`, the pEC50 was < 3.70 and the negative-log IC50 (pIC50) was < 3.70.

In the case of `CCOC(=O)/C=C/c1cccc(OC)c1`, the pEC50 was < 3.80 and the pIC50 was < 3.80.

On to `CC1CC[Si](C)(C)CC12C(=O)NC(=O)NC2=O` (stereo unspecified), for which the pEC50 is < 3.70 and the pIC50 was < 3.70.

As for `O=C1c2c(O)ccc(O)c2C(=O)c2c(NCCCCO)ccc(NCCCCO)c21`, the pEC50 was 4.80 and the pIC50 was 4.76.

As for `CCCCOC(=O)C(=O)/C(=C\n1c(=S)[nH]c2ccccc21)C(=O)C=C(C)C`, the pEC50 was < 3.70.

As for `COc1cc2c(c(O)c1OC)C(=O)C1CCC(=O)N1C2c1cccc2ccccc12` (stereo unspecified), the pEC50 is < 3.70 and the negative logarithm of the IC50 (pIC50) was 4.50.

Consider `CC1(O)CCC2(C#N)CCC1C2O` (stereo unspecified), for which the pEC50 was < 2.86 and the negative-log IC50 (pIC50) is < 2.86.

As for `CC1(C)O[C@@H](CO)[C@H]([C@@]23OC[C@H]4OC(C)(C)OC4[C@@H]2OC(C)(C)O3)O1` (stereo partly specified), the pEC50 is < 3.70 and the negative-log IC50 (pIC50) was < 3.70.

Turning to `N#CCCN(C(=O)Nc1ccc(NC(=O)N(CCC#N)c2ccccc2)cc1)c1ccccc1`, the pEC50 is < 3.70 and the pIC50 is < 3.70.

In the case of `CC(C)C(NC(=O)C(Cc1ccccc1)NC(=O)[C@H]1CCC[C@H]1NC(=O)C(Cc1ccc(OC(C)(C)C)cc1)NC(=O)OC(C)(C)C)C(N)=O` (stereo partly specified), the pEC50 is < 3.70 and the pIC50 was 4.53.

`CSc1n[nH]c(NC(=O)c2ccc(Cl)cc2)n1`: the pEC50 is < 4.71 and the pIC50 was < 4.71.

For the compound `O=C(Cc1ccccc1)NN1C(=O)C(Cl)C1c1cccc(O)c1` (stereo unspecified), the pEC50 is < 4.39 and the pIC50 is 4.81.

Take `O=C(O)CCCCCCCCCCCF`: the pEC50 is < 3.70 and the negative logarithm of the IC50 (pIC50) was 3.73.

Take `O=C1C(Cl)=C(Cl)C(=O)N1c1ccc(F)cc1`: the result was inactive.

Consider `CCCC1C/C=C/C=C/C=C/C=C/C(OC2OC(C)C(O)C(N)C2O)CC(O)C(C(=O)O)C(O)CC(=O)CC(O)CCCC(=O)CC(O)C(CC)C(=O)O1` (stereo unspecified), for which the outcome was inactive.

For `Nc1nc(N)c2c(-c3ccccc3)ccnc2n1`, the pEC50 is < 3.71 and the pIC50 is 3.79.

For the compound `CCN(CC)c1c(N(CC)CC)c(=O)c1=O`, the pEC50 was < 3.70 and the pIC50 was 5.22.

For `O=C1NC2CCC(C2)C1c1ccccc1` (stereo unspecified), the result was inactive.

`COC(=O)[C@@]1(O)CC(C)C=C1C=O` (stereo partly specified): the pEC50 is < 2.87 and the pIC50 was 4.54.

In the case of `O=C(/C=C/c1ccccc1)Oc1cccc(Br)c1`, the pEC50 was < 3.70 and the pIC50 is 4.75.

With `CC(C)CCC[C@@H](C)C1CCC2[C@@H]3CC=C4C[C@@H](OP(=O)([O-])OCC[N+](C)(C)C)CC[C@]4(C)C3CC[C@@]21C` (stereo partly specified), the pEC50 was < 4.40 and the pIC50 was 4.69.

For the compound `Cc1c2n(c(=O)[nH]c1=O)C1OC(CO)C(N=[N+]=[N-])C1O2` (stereo unspecified), the pEC50 is < 3.70 and the pIC50 is < 3.70.

Take `CCOCN1C(=O)C2CC(/C=C/C(=O)OC)=CN2C(=O)c2ccccc21` (stereo unspecified): the outcome was inactive.

For the compound `NC(N)=NS(=O)(=O)c1ccc(NC(=O)c2ccc(Cl)c3c(Nc4ccc(S(=O)(=O)N=C(N)N)cc4)c4ccccc4nc23)cc1`, the pEC50 was < 4.55 and the pIC50 was < 4.55.

As for `O=C1c2cccc3c2C(=O)c2c(cccc21)OCCOCCOCCOCCO3`, the outcome was inactive.

Turning to `Cc1ccc2cccc3c2c1CC1(C3=O)S(=O)(=O)OCCOS1(=O)=O`, the pEC50 was < 3.70 and the pIC50 is < 3.70.

Regarding `O=C(Nc1ccc(F)c(Cl)c1)Nc1cc(Cl)ccc1SSc1ccc(Cl)cc1NC(=O)Nc1ccc(F)c(Cl)c1`, the pEC50 was < 4.18 and the pIC50 is 4.93.

As to `CC(CCC(=O)O)[C@H]1CCC2[C@H]3C(CC[C@@]21C)[C@@]1(C)CCC(O)C[C@H]1C[C@@H]3O` (stereo partly specified), the pEC50 is < 3.70 and the pIC50 is < 4.00.

Turning to `O=C(c1ccco1)n1c2ccc(Br)cc2c2nc3ccccc3nc21`, the pEC50 is < 4.30 and the negative logarithm of the IC50 (pIC50) is 4.65.

As for `CNS(=O)(=O)NNS(=O)(=O)c1ccc(Br)cc1`, the pEC50 was < 4.12 and the pIC50 was < 4.12.

For `NC(=O)NN/C=C(/C=Nc1ccccc1)[N+](=O)[O-]`, the pEC50 was < 3.98 and the pIC50 is < 3.98.

For `COC(=O)C1C=NNC1C(=O)OC` (stereo unspecified), the result was inactive.

Take `C=CCNC(=S)N/C=C(\c1ccccc1)S(=O)Cc1ccccc1` (stereo unspecified): the pEC50 was < 3.70 and the pIC50 is < 3.70.

`[Cl][Cu+].[NH-]C(Cc1c[nH]cn1)C(=O)O` (stereo unspecified): the pEC50 was < 4.33 and the negative-log IC50 (pIC50) was 4.57.

For `CCCCCCOc1ccc(C(=O)NO)cc1`, the pEC50 is < 3.70 and the pIC50 is 4.88.

Consider `Cc1ccc(S(=O)(=O)N/N=C2/CC[C@H](C(C)(C)C)C[C@@H]2C)cc1`, for which the pEC50 is < 3.70 and the pIC50 was 4.66.

Take `C/C(=N\NC(N)=S)c1cn(C2OC(CO)C(O)C2O)c(=O)[nH]c1=O` (stereo unspecified): the outcome was inactive.

For `CO[C@]12[C@@H](COC(=O)NCCO)C3=C(C(=O)C(C)=C(N)C3=O)N1C[C@@H]1[C@H]2N1C` (stereo partly specified), the negative-log EC50 (pEC50) is < 3.70 and the negative logarithm of the IC50 (pIC50) was 4.28.
